Tests used:
[1] = target: T1, Muscarinic acetylcholine receptor M1 (Homo sapiens, UniProt P11229); assay type: functional
T1 sequence (P11229 whole entry): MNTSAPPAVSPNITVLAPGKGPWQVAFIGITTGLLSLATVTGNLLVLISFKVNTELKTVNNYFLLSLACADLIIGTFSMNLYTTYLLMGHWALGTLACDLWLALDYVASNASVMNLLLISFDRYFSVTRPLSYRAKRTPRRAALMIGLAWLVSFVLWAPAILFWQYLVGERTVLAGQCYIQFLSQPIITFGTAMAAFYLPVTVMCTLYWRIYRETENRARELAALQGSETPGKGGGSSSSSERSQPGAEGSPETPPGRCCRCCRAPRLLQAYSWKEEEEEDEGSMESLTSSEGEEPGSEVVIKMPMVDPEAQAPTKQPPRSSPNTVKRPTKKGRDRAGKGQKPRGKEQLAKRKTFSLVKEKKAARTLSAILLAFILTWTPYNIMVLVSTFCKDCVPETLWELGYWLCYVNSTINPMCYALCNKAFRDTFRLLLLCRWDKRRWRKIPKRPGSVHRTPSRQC

[2] = target: Vasopressin V1a receptor (Homo sapiens, UniProt P37288)
[3] = target: T2, Alpha-2A adrenergic receptor (Homo sapiens, UniProt P08913); assay type: functional, cell-based
T2 sequence (P08913 whole entry): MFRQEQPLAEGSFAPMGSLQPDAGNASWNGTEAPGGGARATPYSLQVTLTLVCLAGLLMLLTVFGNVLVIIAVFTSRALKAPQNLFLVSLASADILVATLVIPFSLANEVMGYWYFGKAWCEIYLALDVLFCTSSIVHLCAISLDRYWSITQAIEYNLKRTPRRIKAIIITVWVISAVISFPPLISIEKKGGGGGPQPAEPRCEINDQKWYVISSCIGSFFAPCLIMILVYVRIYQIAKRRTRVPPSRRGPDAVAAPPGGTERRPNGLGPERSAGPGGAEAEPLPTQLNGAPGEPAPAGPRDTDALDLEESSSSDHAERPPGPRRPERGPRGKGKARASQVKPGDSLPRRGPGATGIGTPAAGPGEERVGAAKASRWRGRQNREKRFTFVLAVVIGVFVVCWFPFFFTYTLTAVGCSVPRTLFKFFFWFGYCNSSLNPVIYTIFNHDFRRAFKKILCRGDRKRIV

[4] = target: Histamine H1 receptor (Homo sapiens, UniProt P35367)
[5] = target: Sodium-dependent dopamine transporter (Homo sapiens, UniProt Q01959)
[6] = target: T3, Glucocorticoid receptor (Homo sapiens, UniProt P04150)
T3 sequence (P04150 whole entry): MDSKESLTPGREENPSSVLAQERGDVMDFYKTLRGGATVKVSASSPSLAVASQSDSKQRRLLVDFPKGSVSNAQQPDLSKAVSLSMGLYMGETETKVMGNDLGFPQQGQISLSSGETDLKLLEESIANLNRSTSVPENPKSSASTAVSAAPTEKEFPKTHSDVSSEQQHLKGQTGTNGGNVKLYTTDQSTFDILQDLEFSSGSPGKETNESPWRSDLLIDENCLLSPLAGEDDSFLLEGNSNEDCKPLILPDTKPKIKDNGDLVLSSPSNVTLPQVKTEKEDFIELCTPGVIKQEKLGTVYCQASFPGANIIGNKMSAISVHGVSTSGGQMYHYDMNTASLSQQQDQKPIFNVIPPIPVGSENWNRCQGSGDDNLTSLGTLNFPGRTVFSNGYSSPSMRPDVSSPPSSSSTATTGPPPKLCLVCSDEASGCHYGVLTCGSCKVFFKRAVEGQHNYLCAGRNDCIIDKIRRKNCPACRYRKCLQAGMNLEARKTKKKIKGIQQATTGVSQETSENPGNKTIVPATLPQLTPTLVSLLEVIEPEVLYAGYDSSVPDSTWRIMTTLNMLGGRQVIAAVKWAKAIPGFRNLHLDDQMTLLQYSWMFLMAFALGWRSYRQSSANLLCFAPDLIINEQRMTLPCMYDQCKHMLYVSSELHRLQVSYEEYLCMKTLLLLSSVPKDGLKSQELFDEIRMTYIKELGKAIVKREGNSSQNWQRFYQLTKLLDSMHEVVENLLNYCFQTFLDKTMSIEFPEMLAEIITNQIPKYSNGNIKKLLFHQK

[7] = target: D(1A) dopamine receptor (Homo sapiens, UniProt P21728); assay type: functional, cell-based
[8] = target: Adenosine receptor A2a (Homo sapiens, UniProt P29274)
[9] = target: T4, 5-hydroxytryptamine receptor 3A (Homo sapiens, UniProt P46098); assay type: functional
T4 sequence (P46098 whole entry): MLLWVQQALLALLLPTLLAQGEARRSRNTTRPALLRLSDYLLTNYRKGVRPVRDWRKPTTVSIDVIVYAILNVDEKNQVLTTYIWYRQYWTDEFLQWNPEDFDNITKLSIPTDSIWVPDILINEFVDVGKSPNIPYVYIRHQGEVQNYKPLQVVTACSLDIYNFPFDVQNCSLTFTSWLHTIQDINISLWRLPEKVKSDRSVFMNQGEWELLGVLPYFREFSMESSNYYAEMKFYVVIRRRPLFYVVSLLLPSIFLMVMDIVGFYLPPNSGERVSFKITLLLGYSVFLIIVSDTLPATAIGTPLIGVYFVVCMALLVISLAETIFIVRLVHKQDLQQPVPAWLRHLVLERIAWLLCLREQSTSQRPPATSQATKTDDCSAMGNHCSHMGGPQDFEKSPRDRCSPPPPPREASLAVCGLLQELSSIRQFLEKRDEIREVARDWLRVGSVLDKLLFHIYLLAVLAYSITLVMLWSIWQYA

[10] = target: Sodium-dependent noradrenaline transporter (Homo sapiens, UniProt P23975)
Further: assay procedure not described here.

Sequence of D(1A) dopamine receptor (P21728 whole entry): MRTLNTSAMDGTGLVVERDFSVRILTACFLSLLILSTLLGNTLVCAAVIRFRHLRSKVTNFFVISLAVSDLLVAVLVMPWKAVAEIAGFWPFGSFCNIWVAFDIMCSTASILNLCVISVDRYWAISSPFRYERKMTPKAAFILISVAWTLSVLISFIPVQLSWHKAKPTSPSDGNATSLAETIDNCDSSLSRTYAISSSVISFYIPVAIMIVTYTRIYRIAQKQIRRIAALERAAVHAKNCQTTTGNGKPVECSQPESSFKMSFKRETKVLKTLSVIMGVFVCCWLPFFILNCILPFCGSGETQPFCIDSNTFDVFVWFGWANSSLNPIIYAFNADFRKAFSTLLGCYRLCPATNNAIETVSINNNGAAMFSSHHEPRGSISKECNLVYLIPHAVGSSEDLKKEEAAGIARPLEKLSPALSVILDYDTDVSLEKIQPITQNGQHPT
Sequence of Adenosine receptor A2a (P29274 whole entry): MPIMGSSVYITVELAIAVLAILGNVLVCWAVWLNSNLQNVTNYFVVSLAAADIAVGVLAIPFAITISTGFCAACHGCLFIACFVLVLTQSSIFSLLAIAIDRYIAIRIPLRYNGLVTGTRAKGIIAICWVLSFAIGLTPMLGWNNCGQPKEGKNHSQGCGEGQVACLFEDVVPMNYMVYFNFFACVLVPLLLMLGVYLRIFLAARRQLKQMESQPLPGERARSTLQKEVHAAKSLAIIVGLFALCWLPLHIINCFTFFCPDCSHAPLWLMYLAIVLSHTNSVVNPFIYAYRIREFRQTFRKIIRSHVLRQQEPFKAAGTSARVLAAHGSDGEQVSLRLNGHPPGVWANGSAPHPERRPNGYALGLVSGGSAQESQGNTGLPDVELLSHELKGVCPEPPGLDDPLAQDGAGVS
Sequence of Vasopressin V1a receptor (P37288 whole entry): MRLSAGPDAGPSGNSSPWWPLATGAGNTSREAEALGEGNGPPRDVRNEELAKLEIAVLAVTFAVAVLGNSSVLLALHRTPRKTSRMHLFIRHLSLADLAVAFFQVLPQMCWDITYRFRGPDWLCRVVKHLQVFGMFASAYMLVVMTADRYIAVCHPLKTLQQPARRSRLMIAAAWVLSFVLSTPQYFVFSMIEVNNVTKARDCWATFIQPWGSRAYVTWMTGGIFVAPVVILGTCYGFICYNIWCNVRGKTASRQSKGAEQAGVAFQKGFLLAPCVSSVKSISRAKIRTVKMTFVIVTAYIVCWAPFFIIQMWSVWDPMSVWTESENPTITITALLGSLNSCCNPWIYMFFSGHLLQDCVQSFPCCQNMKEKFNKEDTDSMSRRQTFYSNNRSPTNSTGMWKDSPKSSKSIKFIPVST
Sequence of Sodium-dependent noradrenaline transporter (P23975 whole entry): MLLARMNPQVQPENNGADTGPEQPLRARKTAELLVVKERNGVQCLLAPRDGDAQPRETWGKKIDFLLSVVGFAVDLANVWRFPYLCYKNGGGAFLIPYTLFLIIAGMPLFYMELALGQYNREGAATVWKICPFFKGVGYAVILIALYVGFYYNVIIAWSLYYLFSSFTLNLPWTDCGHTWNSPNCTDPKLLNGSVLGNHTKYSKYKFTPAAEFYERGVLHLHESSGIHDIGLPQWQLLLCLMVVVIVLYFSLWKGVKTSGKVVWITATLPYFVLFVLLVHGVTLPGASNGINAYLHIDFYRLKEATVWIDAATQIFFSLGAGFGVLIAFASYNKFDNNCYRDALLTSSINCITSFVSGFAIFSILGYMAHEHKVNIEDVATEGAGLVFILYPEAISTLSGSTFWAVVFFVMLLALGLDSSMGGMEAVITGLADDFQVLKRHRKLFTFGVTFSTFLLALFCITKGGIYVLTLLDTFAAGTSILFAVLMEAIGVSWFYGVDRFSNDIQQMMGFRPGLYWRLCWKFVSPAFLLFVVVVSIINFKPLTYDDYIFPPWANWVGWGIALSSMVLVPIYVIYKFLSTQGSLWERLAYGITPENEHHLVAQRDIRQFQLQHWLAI
Sequence of Sodium-dependent dopamine transporter (Q01959 whole entry): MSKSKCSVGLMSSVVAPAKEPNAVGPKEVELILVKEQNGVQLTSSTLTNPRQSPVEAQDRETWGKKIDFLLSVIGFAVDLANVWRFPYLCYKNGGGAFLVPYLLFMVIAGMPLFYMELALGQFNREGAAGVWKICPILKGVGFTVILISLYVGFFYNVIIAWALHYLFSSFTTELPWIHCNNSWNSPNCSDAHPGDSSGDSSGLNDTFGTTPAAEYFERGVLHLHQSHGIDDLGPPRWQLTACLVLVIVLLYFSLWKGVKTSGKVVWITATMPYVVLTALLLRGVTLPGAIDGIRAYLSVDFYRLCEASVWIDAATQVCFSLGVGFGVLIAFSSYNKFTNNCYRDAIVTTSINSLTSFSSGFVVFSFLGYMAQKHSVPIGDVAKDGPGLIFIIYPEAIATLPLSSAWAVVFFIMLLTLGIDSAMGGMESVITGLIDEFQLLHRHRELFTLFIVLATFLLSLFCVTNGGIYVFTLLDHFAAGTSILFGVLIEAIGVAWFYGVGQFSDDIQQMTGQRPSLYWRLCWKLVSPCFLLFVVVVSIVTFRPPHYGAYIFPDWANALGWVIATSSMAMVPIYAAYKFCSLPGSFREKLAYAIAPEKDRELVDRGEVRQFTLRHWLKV
Sequence of Histamine H1 receptor (P35367 whole entry): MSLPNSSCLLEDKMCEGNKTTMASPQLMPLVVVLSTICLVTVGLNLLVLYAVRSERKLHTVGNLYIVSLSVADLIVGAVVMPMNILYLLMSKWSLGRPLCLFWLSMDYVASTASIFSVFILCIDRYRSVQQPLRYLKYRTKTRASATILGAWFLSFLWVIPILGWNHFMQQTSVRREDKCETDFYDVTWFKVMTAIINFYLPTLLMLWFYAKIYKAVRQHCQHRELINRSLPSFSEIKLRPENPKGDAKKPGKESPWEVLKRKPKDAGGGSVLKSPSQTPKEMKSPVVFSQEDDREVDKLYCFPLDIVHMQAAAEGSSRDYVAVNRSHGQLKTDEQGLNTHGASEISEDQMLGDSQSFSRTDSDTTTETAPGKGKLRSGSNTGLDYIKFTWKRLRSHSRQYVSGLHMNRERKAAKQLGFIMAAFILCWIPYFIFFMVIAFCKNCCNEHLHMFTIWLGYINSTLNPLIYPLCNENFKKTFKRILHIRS

Structure (SMILES) | AC50 [1] [µM] | AC50 [2] [µM] | AC50 [3] [µM] | AC50 [4] [µM] | AC50 [5] [µM] | AC50 [6] [µM] | AC50 [7] [µM] | AC50 [8] [µM] | AC50 [9] [µM] | AC50 [10] [µM]
CC(=O)OCC1=C(C(=O)O)N2C(=O)[C@@H](NC(=O)CSc3ccncc3)[C@H]2SC1 [CEPHAPIRIN] | > 10 | > 10 | > 10 | > 10 | > 10 | > 30 | > 10 | > 10 | > 30 | > 10
CO/N=C(\C(=O)N[C@@H]1C(=O)N2C(C(=O)[O-])=C(C[n+]3ccc(N)n3CCO)CS[C@H]12)c1csc(N)n1 [CEFOSELIS] | > 30 | > 30 | > 30 | > 30 | > 30 | > 30 | > 30 | > 30 | > 30 | > 30
O=C(O)c1ccc2nc(-c3cc(Cl)cc(Cl)c3)oc2c1 | > 30 | > 30 | > 30 | > 30 | > 30 | > 30 | 12 | > 30 | > 30 | > 30
CC1=C(/C=C/C(C)=C/C=C/C(C)=C/C(=O)Oc2c(C)c(C)c3c(c2C)CCC(C)(CCCC(C)CCCC(C)CCCC(C)C)O3)C(C)(C)CCC1 (stereo not given) [TRETINOIN TOCOFERIL] | > 30 | > 30 | > 30 | > 30 | > 30 | > 30 | > 30 | > 30 | > 30 | > 30
C=C(c1ccccc1OCc1cccc(Cl)c1)n1ccnc1 [CROCONAZOLE] | > 10 | > 30 | > 10 | > 10 | > 30 | 3.46 | > 10 | > 30 | > 30 | 1.8
